From ChEMBL document CHEMBL5120965, “Moroidin, a Cyclopeptide from the Seeds of Celosia cristata That Induces Apoptosis in A549 Human Lung Cancer Cells” (J Nat Prod, 2022)
Activity calls are given as the source filed them. The rule behind the calls is not given here.

Tests used:
[1] = tested on: A549; assay: Cytotoxicity against human A549 cells assessed as reduction in cell viability incubated for 72 hrs by MTT assay; format: functional, cell-based; settings: A549, 72 h
[2] = tested on: NCI-H1299; assay: Cytotoxicity against human H1299 cells assessed as reduction in cell viability incubated for 72 hrs by MTT assay; format: functional, cell-based; settings: NCI-H1299, 72 h
[3] = tested on: U-87 MG; assay: Cytotoxicity against human U87 cells assessed as reduction in cell viability incubated for 72 hrs by MTT assay; format: functional, cell-based, U-87MG ATCC
[4] = tested on: U-251; assay: Cytotoxicity against human U-251 cells assessed as reduction in cell viability incubated for 72 hrs by MTT assay; format: functional, cell-based; settings: U-251, 72 h
[5] = tested on: HCT-116; assay: Cytotoxicity against human HCT-116 cells assessed as reduction in cell viability incubated for 72 hrs by MTT assay; format: functional, cell-based; settings: HCT-116, 72 h
[6] = tested on: MCF7; assay: Cytotoxicity against human MCF7 cells assessed as reduction in cell viability incubated for 72 hrs by MTT assay; format: functional, cell-based; settings: MCF7, 72 h
[7] = tested on: A549; assay: Inhibition of colony formation in human A549 cells up to 20 uM measured after 10 days by crystal violet staining based assay; format: functional, cell-based; settings: dose 1.25-20 µM, time 10.0 day, DDE = dose-dependent effect
[8] = tested on: MCF7; assay: Inhibition of colony formation in human MCF7 cells measured after 10 days by crystal violet staining based assay; format: functional, cell-based; settings: dose 1.25-20 µM, time 10.0 day, DDE = dose-dependent effect
[9] = tested on: A549; assay: Induction of microtubule depolymerization in human A549 cells assessed as reduction in microtubule network measured after 48 hrs by DAPI staining based immunofluorescence assay; format: functional, cell-based; settings: dose 2.5-5 µM
[10] = tested on: A549; assay: Induction of microtubule depolymerization in human A549 cells assessed as fragmentation of microtubule network measured after 48 hrs by DAPI staining based immunofluorescence assay; format: functional, cell-based; settings: dose 2.5-5 µM
[11] = tested on: A549; assay: Induction of microtubule depolymerization in human A549 cells assessed as reduction in tubulin protein level at 2.5 uM by Western blot analysis; format: functional; parameters: scale not given: the % may be the effect or the level left
[12] = tested on: A549; assay: Induction of cell cycle arrest in human A549 cells assessed as increase in accumulation of cells at G2/M phase at 5 to 20 uM measured after 48 hrs by […]propidium iodide staining based flow cytometry analysis (reference value: 8.33%); format: functional; settings: dose 5-20 µM
[13] = tested on: A549; assay: Induction of cell cycle arrest in human A549 cells assessed as decrease in ratio of cells at G1 phase measured after 48 hrs by […]propidium iodide staining based flow cytometry analysis; format: functional; settings: dose 5-20 µM, DDE = dose-dependent effect
[14] = tested on: A549; assay: Induction of cell apoptosis in human A549 cells assessed as increase in apoptosis rate at 5 uM measured after 48 hrs by annexinV-FITC/propidium iodide staining based flow cytometry analysis (reference value: 3.27%); format: functional
[15] = tested on: A549; assay: Induction of cell apoptosis in human A549 cells assessed as increase in apoptosis rate at 10 uM measured after 48 hrs by annexinV-FITC/propidium iodide staining based flow cytometry analysis (reference value: 3.27%); format: functional
[16] = tested on: A549; assay: Induction of cell apoptosis in human A549 cells assessed as increase in apoptosis rate at 20 uM measured after 48 hrs by annexinV-FITC/propidium iodide staining based flow cytometry analysis (reference value: 3.27%); format: functional
[17] = tested on: A549; assay: Induction of cell apoptosis in human A549 cells assessed as increase in pro-caspase 3 level measured after 48 hrs by Western blot analysis; format: functional, cell-based; settings: dose 5-20 µM, DDE = dose-dependent effect
[18] = tested on: A549; assay: Induction of cell apoptosis in human A549 cells assessed as increase in pro-caspase 9 level measured after 48 hrs by Western blot analysis; format: functional, cell-based; settings: dose 5-20 µM, DDE = dose-dependent effect
[19] = tested on: A549; assay: Induction of cell apoptosis in human A549 cells assessed as increase in PARP level measured after 48 hrs by Western blot analysis; format: functional, cell-based; settings: dose 5-20 µM, DDE = dose-dependent effect
[20] = tested on: A549; assay: Induction of cell apoptosis in human A549 cells assessed as increase in cleaved-caspase 3 level measured after 48 hrs by Western blot analysis; format: functional, cell-based; settings: dose 5-20 µM, DDE = dose-dependent effect
[21] = tested on: A549; assay: Induction of cell apoptosis in human A549 cells assessed as increase in cleaved-caspase 9 level measured after 48 hrs by Western blot analysis; format: functional, cell-based; settings: dose 5-20 µM, DDE = dose-dependent effect
[22] = tested on: A549; assay: Induction of cell apoptosis in human A549 cells assessed as increase in cleaved PARP level measured after 48 hrs by Western blot analysis; format: functional, cell-based; settings: dose 5-20 µM, DDE = dose-dependent effect
[23] = tested on: A549; assay: Induction of cell apoptosis in human A549 cells assessed as increase in Bax expression level at 5 to 20 uM measured after 48 hrs by Western blot analysis; format: functional, cell-based; settings: dose 5-20 µM
[24] = tested on: A549; assay: Induction of cell apoptosis in human A549 cells assessed as decrease in Bcl-2 expression level at 5 to 20 uM measured after 48 hrs by Western blot analysis; format: functional, cell-based; settings: dose 5-20 µM
[25] = tested on: A549; assay: Induction of cell apoptosis in human A549 cells assessed as increase in Bax/Bcl-2 ratio at 5 to 20 uM measured after 48 hrs by Western blot analysis; format: functional, cell-based; settings: dose 5-20 µM
[26] = tested on: A549; assay: Induction of cell apoptosis in human A549 cells assessed as reduction in AKT phosphorylation at 5 to 20 uM measured after 48 hrs by Western blot analysis; format: functional, cell-based; settings: dose 5-20 µM
[27] = tested on: A549; assay: Induction of cell apoptosis in human A549 cells assessed as reduction in AKT expression at 5 to 20 uM measured after 48 hrs by Western blot analysis; format: functional, cell-based; settings: dose 5-20 µM
[28] = tested on: A549; assay: Antimigratory activity against human A549 cells assessed as migration of cells into scratch area at 0.5 uM measured after 48 hrs by scratch assay based microscopic analysis (reference value: 85.15%); format: functional
[29] = tested on: A549; assay: Antimigratory activity against human A549 cells assessed as migration of cells into scratch area at 1 uM measured after 48 hrs by scratch assay based microscopic analysis (reference value: 85.15%); format: functional
[30] = tested on: A549; assay: Antimigratory activity against human A549 cells assessed as migration of cells into scratch area at 2 uM measured after 48 hrs by scratch assay based microscopic analysis (reference value: 85.15%); format: functional
[31] = tested on: A549; assay: Antimigratory activity against human A549 cells assessed as reduction in number of migrated cells measured after 48 hrs by transwell assay based microscopic analysis; format: functional, cell-based; settings: dose 0.5-2 µM, DDE = dose-dependent effect
[32] = tested on: A549; assay: Antiinvasive activity against human A549 cells assessed as reduction in number of invasion cells measured after 48 hrs by transwell assay based microscopic analysis; format: functional, cell-based; settings: dose 0.5-2 µM, DDE = dose-dependent effect
[33] = tested on: A549; assay: Induction of microtubule depolymerization in human A549 cells assessed as occurence of cell shrinkage at 2.5 uM measured after 48 hrs by DAPI staining based immunofluorescence assay; format: functional
[34] = tested on: A549; assay: Induction of microtubule depolymerization in human A549 cells assessed as occurence of rounded cells at 2.5 uM measured after 48 hrs by DAPI staining based immunofluorescence assay; format: functional, cell-based
[35] = tested on: A549; assay: Antiproliferative activity against human A549 cells assessed as reduction in cell viability at 0.01 to 100 uM measured after 24 to 72 hrs by MTT assay; format: functional, cell-based; settings: dose 0.01-100 µM, time 24-72 hrs

CC(C)C[C@@H]1NC(=O)[C@@H](NC(=O)[C@@H]2CCC(=O)N2)[C@H](C(C)C)c2ccc3c4c([nH]c3c2)-n2cnc(c2)C[C@@H](C(=O)O)NC(=O)CNC(=O)[C@H](CCCNC(=N)N)NC(=O)[C@H](C4)NC(=O)[C@H](C(C)C)NC1=O
IC50 [1]: 3.2 µM
IC50 [2]: 8.3 µM
IC50 [3]: 9.6 µM
IC50 [4]: 5.2 µM
IC50 [5]: 9.9 µM
IC50 [6]: > 10 µM
inhibition [7]: Dde
inhibition [8]: Dde
Activity [9]: Active
Activity [10]: Active
Activity [11]: 20%
Activity [12]: 36.35%
Activity [13]: Dde
Activity [14]: 6.14%
Activity [15]: 11.4%
Activity [16]: 20.62%
Activity [17]: Dde
Activity [18]: Dde
Activity [19]: Dde
Activity [20]: Dde
Activity [21]: Dde
Activity [22]: Dde
Activity [23]: Active
Activity [24]: Active
Activity [25]: Active
Activity [26]: Active
Activity [27]: Active
Activity [28]: 60.84%
Activity [29]: 40.22%
Activity [30]: 21.92%
Activity [31]: Dde
Activity [32]: Dde

COc1cc2c(c(OC)c1OC)-c1ccc(OC)c(=O)cc1[C@@H](NC(C)=O)CC2 [COLCHICINE]
Activity [33]: Active
Activity [34]: Active
Activity [11]: 63%
Activity [35]: Active
